Patent US9487561B2, “Biologically active complex and its preparation” (HAMLET PHARMA AB, priority 2010, dated 2016)

Experiments:
[1] = test system: A549 lung carcinoma cells; experiment: cell death assay (trypan blue exclusion, ATP levels); format: cell-based, human; conditions: for effect of channel inhibitor on HAMLET-induced cell death: 30 minutes pretreatment, HAMLET three hours
Method: (§1) Cells were detached from cell culture flasks with versen (0.2 g EDTA in 200 ml H2O and 800 ml PBS), washed with PBS and resuspended in serum-free RPMI-1640. HAMLET dissolved in PBS was incubated with cells (0.5×10^6/ml for A549, A498 and HeLa cells; 1×10^6/ml for Jurkat) at 37° C. FCS was added after 1 hour. Cell death was quantified by trypan blue exclusion (Chroma Gesellschaft Schmid & Co) or by measuring ATP levels (ATPlite Kit, PerkinElmer, Infinite 200, Tecan). Light images were captured using the HOLOMONITOR™ M2 digital holographic microscope (Phase Holographic Imaging AB, Lund, Sweden).
For studies with inhibitors, cells were pretreated for 30 minutes. Inhibitors used were Gadolinium chloride (GdCl3, 100 μM), Barium chloride (BaCl2, 1 mM), Ruthenium red (30 μM), tetrandrine (10 μM) and amiloride (1 mM), all from Sigma Aldrich. For p38 inhibition, SB202190 (20 μM, Sigma Aldrich) or BIRB796 (10 μM, Axon Medchem) dissolved in DMSO was used. The wells were washed twice with PBS and new medium with inhibitor was added. For RNA interference, FlexiTube siRNA Premixes against MAPK11 (SI00606053), MAPK14 (SI00300769) and All Star Negative Control siRNA (SI03650318) from Qiagen was used. A549 forward was transfected using 25 nM final siRNA concentration in 24-well plate. After 48 hours, knockdown was examined by Western blot (anti-p38, 1:1000, Cell Signaling) and RT-PCR (MAPK14, QT00079345, QIAGEN).
To examine if functional ion channels are important for the tumoricidal activity of HAMLET, A549 lung carcinoma cells in suspension were pretreated with the channel inhibitors for 30 minutes and exposed to increasing concentrations of HAMLET for three hours.
A549 cells were seeded to a density of 0.8-1.0×10^6 cells/well in RPMI without FCS. Different volumes of HAMLET/oleate and oleic acid solutions were added. The cells were incubated for 1 hour at 37° C. 5% CO2 for 1 hour before 50 μl of FCS (5% final concentration) were added to the wells. The cells were then further incubated for additional 2 hours before the viability were determined by trypan blue exclusion and ATP measurements.

[2] = test system: kidney carcinoma (A498) cells; experiment: cell death assay with p38 inhibitors; format: cell-based, human; conditions: SB202190 20 μM or BIRB796 10 μM; HAMLET 3 h
Method: FIG. 4. p38 inhibition rescues carcinoma and lymphoma cells from death and morphological change in response to HAMLET. (A, B) p38 inhibition (SB202190, 20 μM) rescued carcinoma (A549 and A498) and T-cell lymphoma (Jurkat) cells from death in response to HAMLET (7-49 μM, 3 h). Viability was quantified by Trypan blue exclusion (A) or as ATP levels (B). Data are means+SEMs for 3 independent experiments. (C) Real-time images of cell morphology after HAMLET exposure, showing that p38 inhibition prevents morphological changes in carcinoma cells (nuclear condensation, rounding up and blebbing). (D-E) A549 lung carcinoma cells were transfected using siRNA against p38α/MAPK14 and/or p38β/MAPK11 or non-targeting siRNA. Relative MAPK11 and MAPK14 mRNA levels are shown (MAPK/GAPDH, in % of non-transfected cells) as means+SEMs for 4 independent experiments. […] (F) The cytotoxic effect of HAMLET was quantified 48 hours after transfection as reduction in ATP levels. […]
FIG. 12. […] Viability was quantified by ATP levels.
Cells were detached from cell culture flasks with versen (0.2 g EDTA in 200 ml H2O and 800 ml PBS), washed with PBS and resuspended in serum-free RPMI-1640. […] Cell death was quantified by trypan blue exclusion (Chroma Gesellschaft Schmid & Co) or by measuring ATP levels (ATPlite Kit, PerkinElmer, Infinite 200, Tecan). […]

[3] = test system: lung carcinoma, kidney carcinoma and lymphoma cells; experiment: HAMLET-induced change in cell morphology (light microscopy, real-time imaging); format: cell-based; conditions: for effect of ion channel inhibitor on HAMLET-induced change in cell morphology: light microscopy
Method: as §1
For live cell imaging, cells were pre-treated with SB202190 for 30 minutes, nuclei were stained with Hoechst 33342 (Invitrogen) and Alexa-Fluor 568-labeled HAMLET (10% labeled HAMLET, Molecular Probes) was added in serum-free medium. FCS was added after 1 hour. Fluorescence was detected with pinhole settings corresponding to 1 airy unit. The cells were kept at 37° C., 5% CO2 and examined unfixed by LSM510 DUO confocal microscopy (Carl Zeiss).
To examine if the HAMLET-induced change in carcinoma cell morphology was modified by the channel inhibitors, lung carcinoma, kidney carcinoma and lymphoma cells were exposed to HAMLET in the presence or absence of ion channel inhibitors and examined by light microscopy (FIG. 2C).
To determine if p38 signaling was involved in cell death, we inhibited p38α and p38β in lung and kidney carcinoma and Jurkat lymphoma cells with two small-molecule p38 inhibitors: SB202190, a highly specific pyridinyl-imidazole inhibitor; and BIRB796, a diaryl urea compound, which bears little structural similarity to SB202190 (Fabian et al., 2005, Nature Biotechnology 23: 329-336), ([…] and FIG. 12B). […] The effect of p38 inhibition on cell death was also observed by real-time confocal imaging of lung carcinoma cells exposed to fluorescently labeled HAMLET.

[4] = test system: lung carcinoma cells (A549); experiment: intracellular Ca^2+, Fluo-4, real time confocal microscopy; format: cell-based, human
Method: To examine if HAMLET modulates ion channel activity in tumor cells, we first quantified changes in intracellular Ca^2+ and K^+. Lung carcinoma cells were first preloaded with the Fluo-4 Ca^2+ fluorophore Fluo-, exposed to HAMLET (35 μM) and examined by real time confocal microscopy for changes in fluorescence intensity (FIG. 1A). The Ca^2+ ionophore A23187, which acts as a Ca^2+ shuttle across cell membranes, was used as a positive control (Abbott et al., 1979, Antimicrobial Agents and Chemotherapy 16, 808-812).
(§2) To distinguish Ca^2+ mobilization from intracellular stores from the influx of extracellular Ca^2+, EGTA was then added to the cell medium. […] K^+ fluxes across tumor cell membranes were subsequently quantified under the same experimental conditions, using the fluorophore FLUXOR™, which fluoresces after thallium has entered cells through K^+ channels.
(§3) To further characterize ion channel activation by HAMLET, carcinoma cells were pretreated with defined channel blockers. Amiloride is a sodium channel inhibitor with effects on mechanosensitive channels, barium chloride (BaCl2) is a general K^+ channel inhibitor, gadolinium chloride (GdCl3) inhibits mechanosensitive channels, Ruthenium red is a general Ca^2+ inhibitor and tetrandrine inhibits large conductance, Ca^2+ activated K^+ channels. The carcinoma cells were preincubated with Fluo-4 as described above, pretreated with each of the channel inhibitors for 30 minutes, exposed to HAMLET (35 μM) and examined by real time confocal imaging. Furthermore, cells treated with EGTA were compared to cells with intact extracellular Ca^2+ levels, to distinguish the early peak from the subsequent influx of Ca^2+ (FIG. 1B, Table in FIG. 8).

[5] = test system: Human renal tubular epithelial cells (HRTEC); experiment: Ca^2+ and K^+ levels in healthy, differentiated cells in primary culture; format: cell-based
Method: Human renal tubular epithelial cells (HRTEC) were preincubated with Fluo-4 as described, exposed to HAMLET (35 μM) and examined by real time confocal microscopy.
as §3

[6] = test system: potassium channels in A549, lung carcinoma cell lines; experiment: FLUXOR potassium (K^+) channel assay, Thallium (Tl^+) indicator; format: cell-based, human; conditions: carcinoma cells, 30 minutes pretreatment, HAMLET 35 μM
Method: The FLUXOR™ potassium (K^+) channel assay was performed on the TECAN infinite F200 (Tecan Group, Switzerland), according to the manufacturer's instructions (Invitrogen). Briefly, this involved FLUXOR™ loading buffer (Hank's Balanced Saline Solution, (HBSS) buffered with 20 mM HEPES and pH adjusted to 7.4 with NaOH. POWERLOAD™ concentrate and water-soluble Probenecid were used respectively to enhance the dye solubility and retention, respectively. Media were removed from the cell plates manually, and 80 μL of loading buffer containing the FLUXOR™ dye mix was applied to each well. Once inside the cell, the nonfluorescent AM ester form of the FLUXOR™ dye is cleaved by endogenous esterases into a thallium-sensitive indicator. The dye was loaded for 60 minutes at room temperature and then removed with the supernatant. After washing with dye-free PBS buffer, a final volume of 80 μL assay buffer containing water-soluble probenecid was added. Cells received one of the following channel inhibitors: 3.3 μL per well of 30 mM amiloride, 3.0 μL of 32 mM BaCl2, 1.8 μL of 5.4 mM gadolinium, 3 μL 3.2 mM tetrandrine and 2.3 μL of 2.6 mM ruthenium red, and were then incubated at room temperature (23-25° C.) for 30 minutes to allow equilibration of the test compounds. Prior to injection, stimulation buffer was prepared from the chloride-free buffer and thallium reagents provided in the kit as well as HAMLET, to achieve a final added concentrations of 2 mM free Tl+ and 35 μM HAMLET after 1:5 dilution upon injection of the stimulus buffer onto cells that had been loaded with FLUXOR™ dye.
as §2
Potassium channel activity was therefore measured in A549, lung carcinoma cell lines using an indicator, which emits fluorescence signal upon entering the cells via opened potassium channels, Thallium (Tl^+) indicator (FIG. 18).

tumor cells = experiment: Tumoricidal Activity of Oleate-HAMLET (cell death method of Example 1); format: cell-based

Molecule: Cc1ccc(-n2nc(C(C)(C)C)cc2NC(=O)Nc2ccc(OCCN3CCOCC3)c3ccccc23)cc1 [BIRB796]
- effect of p38 inhibitor on death in response to HAMLET ([1]; SB202190 20 μM or BIRB796 10 μM, HAMLET 3 h): rescued
- effect of p38 inhibitor on death in response to HAMLET [2]: rescued
- effect of p38 inhibitor on morphological changes associated with HAMLET induced cell death ([3]; BIRB796 10 μM, HAMLET 35 μM, 3 h): diminishes the morphological changes

Molecule: [Cl][Gd]([Cl])[Cl] [GdCl3, Gadolinium chloride, reference compound]
- effect of channel blocker on first, EGTA insensitive Ca^2+ peak in response to HAMLET ([4]; 30 minutes pretreatment, HAMLET 35 μM): inhibited
- effect of channel blocker on response to HAMLET in healthy cells [5]: no effect
- effect of channel blocker on K^+ flux in response to HAMLET [6]: strongly inhibited
- effect of channel inhibitor on HAMLET-induced cell death [1]: no effect on viability
- effect of ion channel inhibitor on HAMLET-induced change in cell morphology [3]: did not prevent the morphological changes

Molecule: N.N.N.N.N.N.N.N.N.N.N.N.N.N.[Cl-].[Cl-].[Cl-].[Cl-].[Cl-].[Cl-].[O-2].[O-2].[Ru+3].[Ru+3].[Ru+4] [Ruthenium red, ammoniated ruthenium oxychloride]
- effect of channel inhibitor on HAMLET-induced cell death [1]: no effect on viability
- effect of ion channel inhibitor on HAMLET-induced change in cell morphology [3]: did not prevent the morphological changes

Molecule: CNc1ccc2oc(C[C@H]3O[C@@]4(CC[C@H]3C)O[C@H]([C@H](C)C(=O)c3ccc[nH]3)[C@H](C)C[C@H]4C)nc2c1C(=O)O [ionophore, reference compound]
- cells involved in Ca^2+ response [4]: all cells
- intracellular Ca^2+ response ([4]; HAMLET 35 μM): more drastic and sustained increase in intracellular Ca^2+ levels than HAMLET
- Ca^2+ response in HRTECs ([5]; HAMLET 35 μM): rapid and sustained increase in Ca^2+

B1: Oleate-HAMLET: complex from EDTA treated alphalactalbumin converted on a column conditioned with sodium oleate (protein, UniProt P00709 20-142, looked up)
Alpha-lactalbumin: KQFTKCELSQLLKDIDGYGGIALPELICTMFHTSGYDTQAIVENNESTEYGLFQISNKLWCKSSQVPQSRNICDISCDKFLDDDITDDIMCAKKILDIKGIDYWLAHKALCTEKLEQWLCEKL
modifications: sodium oleate complex
- tumoricidal activity compared with OA complex (tumor cells): at least as tumoricidal as the OA complex
- Trypan blue (tumor cells; 0.5 mg/ml, Control 88): 1
- ATP Activity (tumor cells; 0.5 mg/ml, Control 100): 27%
